The values below are quoted from earlier work in US8293711B2, “Use of natriuretic peptides for treating angioedema syndromes” (Pharis Biotech GmbH, priority 2007, dated 2012).

One data set has as its system HEK-293. To be noted: human embryonic kidney cell line HEK-293; via activation of a cGMP-dependent pathway.
Data set [1] deals with bradykinin-induced edema in the hamster cheek pouch. To be noted: unspecific tyrosine kinase inhibitors.
The test system of data set [2] is acute renal failure models.

On to `CC[C@H](C)[C@@H]1NC(=O)[C@H](CCCNC(=N)N)NC(=O)[C@H](CC(=O)O)NC(=O)[C@H](CCSC)NC(=O)[C@H](CCCNC(=N)N)NC(=O)CNC(=O)CNC(=O)[C@H](Cc2ccccc2)NC(=O)[C@@H](NC(=O)[C@H](CO)NC(=O)[C@H](CO)NC(=O)[C@H](CCCNC(=N)N)NC(=O)[C@H](CCCNC(=N)N)NC(=O)[C@H](CC(C)C)NC(=O)[C@@H](N)CO)CSSC[C@@H](C(=O)N[C@@H](CC(N)=O)C(=O)N[C@@H](CO)C(=O)N[C@@H](Cc2ccccc2)C(=O)N[C@@H](CCCNC(=N)N)C(=O)N[C@@H](Cc2ccc(O)cc2)C(=O)O)NC(=O)CNC(=O)[C@H](CC(C)C)NC(=O)CNC(=O)[C@H](CO)NC(=O)[C@H](CCC(N)=O)NC(=O)[C@H](C)NC(=O)CNC1=O` [ANP, atrial natriuretic peptide], for which, in the data set on HEK-293, the tyrosine phosphorylation result is “able to counteract tyrosine phosphorylation”. Consider `O=c1c(-c2ccc(O)cc2)coc2cc(O)cc(O)c12` [genistein], for which, in data set [1], the “bradykinin-mediated effect (edema)” value is “attenuated”.

For the molecule `N#CC(C#N)=Cc1cc(O)c(O)c(O)c1` [tyrphostin 25], the “bradykinin-mediated effect (edema)” value in data set [1] is given as “attenuated”. As for urodilatin, the tyrosine phosphorylation result in the data set with HEK-293 was “able to counteract tyrosine phosphorylation”. Further, the “diuretic and natriuretic effects” value in data set [2] was “strong diuretic and natriuretic effects”.
